Test results from patent publication US3954733A, “Naphthyridine-3-carboxamido-benzylpenicillins and salts thereof” (Sumitomo Chemical Company, Limited, priority 1973, dated 1976).
Values after ≈ are worked out from the molar mass of the structure shown.

Legend:
Experiment in all cases: minimal inhibitory concentration, agar dilution method
Format in all cases: cell-based
Proteus vulgaris HV19 = system: Proteus vulgaris HV19
Escherichia coli NIHJ = system: Escherichia coli NIHJ
Text: (§1) When determined according to the agar dilution method, the penicillins (I) afford the minimal inhibitory concentrations against test microorganisms as shown in Table 2.

Proteus miravilis GN2425 = system: Proteus miravilis GN2425
[1] = system: Pseudomonas aeruginosa 104
Text: as §1

[2] = system: Staphylococcus aureus 209P
Text: as §1

Row | SMILES | MIC (Proteus vulgaris HV19) [µg/mL] | MIC (Escherichia coli NIHJ) [µg/mL] | MIC (Proteus miravilis GN2425) [µg/mL] | MIC [1] [µg/mL] | MIC [2] [µg/mL]
1 | CC1(C)S[C@@H]2[C@H](NC(=O)C(NC(=O)c3cnc4cccnc4c3O)c3ccc(O)cc3)C(=O)N2[C@H]1C(=O)O (mixture of isomers) [Example 2, DL-α-(4-hydroxy-1,5-naphthyridine-3-carboxamido)-p-hydroxybenzylpenicillin] | 0.025 | 3.13 | 3.13 | – | –
2 | CCOC(=O)Oc1ccc(C(NC(=O)c2cnc3ccc(N(C)C)nc3c2O)C(=O)N[C@@H]2C(=O)N3[C@@H]2SC(C)(C)[C@@H]3C(=O)O)cc1 (mixture of isomers) [Example 3, DL-α-(4-hydroxy-6-dimethylamino-1,5-naphthyridine-3-carboxamido)-p-ethoxycarbonyloxybenzylpenicillin] | 0.1 | 1.56 | 1.56 | 3.13 | 1.56
3 | CC1(C)S[C@@H]2[C@H](NC(=O)C(NC(=O)c3cnc4ccccc4c3O)c3ccc(O)cc3)C(=O)N2[C@H]1C(=O)O (mixture of isomers) [Example 6, DL-α-(4-hydroxyquinoline-3-carboxamido)-p-hydroxybenzylpenicillin] | 0.2 | 6.25 | 6.25 | 6.25 | 0.78
4 | CC1(C)S[C@@H]2[C@H](NC(=O)C(C(=O)O)c3ccccc3)C(=O)N2[C@H]1C(=O)O (stereo partly shown) [Carbenicillin, reference compound] | – | 12.5 (≈ 33 µM) | 0.78 (≈ 2.06 µM) | 50 to 100 (≈ 132 to 264 µM) | 0.78 (≈ 2.06 µM)
5 | CC1(C)S[C@@H]2[C@H](NC(=O)[C@H](NC(=O)c3cnc4cccnc4c3O)c3ccc(O)cc3)C(=O)N2[C@H]1C(=O)O [Example 1, D-α-(4-hydroxy-1,5-naphthyridine-3-carboxamido)-p-hydroxybenzylpenicillin] | 0.025 (≈ 0.0465 µM) | 1.56 (≈ 2.9 µM) | 1.56 (≈ 2.9 µM) | 1.56 (≈ 2.9 µM) | 0.78 (≈ 1.45 µM)
6 | CC(C)(C)C(=O)Oc1ccc([C@@H](NC(=O)c2cnc3ccccc3c2O)C(=O)N[C@@H]2C(=O)N3[C@@H]2SC(C)(C)[C@@H]3C(=O)O)cc1 [Example 4, D-α-(4-hydroxyquinoline-3-carboxamido)-p-pivaloyloxybenzylpenicillin] | 0.2 (≈ 0.322 µM) | 6.25 (≈ 10.1 µM) | 6.25 (≈ 10.1 µM) | 6.25 (≈ 10.1 µM) | 0.39 (≈ 0.628 µM)
7 | CCOC(=O)Oc1c(C(=O)N[C@@H](C(=O)N[C@@H]2C(=O)N3[C@@H]2SC(C)(C)[C@@H]3C(=O)O)c2ccc(OC(=O)OCc3ccccc3)cc2)cnc2cccnc12 [Example 5, D-α-(4-ethoxycarbonyloxy-1,5-naphthyridine-3-carboxamido)-p-benzyloxycarbonyloxybenzylpenicillin] | 0.05 (≈ 0.0672 µM) | 3.13 (≈ 4.21 µM) | 3.13 (≈ 4.21 µM) | 3.13 (≈ 4.21 µM) | 1.56 (≈ 2.1 µM)
8 | Cc1ccc2c(O)c(C(=O)N[C@@H](C(=O)N[C@@H]3C(=O)N4[C@@H]3SC(C)(C)[C@@H]4C(=O)O)c3ccc(O)cc3)cnc2n1 [Example 7, D-α-(4-hydroxy-7-methyl-1,8-naphthyridine-3-carboxamido)-p-hydroxybenzylpenicillin] | 0.05 (≈ 0.0906 µM) | 1.56 (≈ 2.83 µM) | 3.13 (≈ 5.67 µM) | 1.56 (≈ 2.83 µM) | 0.78 (≈ 1.41 µM)
9 | CC1(C)S[C@@H]2[C@H](NC(=O)[C@H](NC(=O)c3nnc4ccccc4c3O)c3ccc(O)cc3)C(=O)N2[C@H]1C(=O)O [Example 8, D-α-(4-hydroxycinnoline-3-carboxamido)-p-hydroxybenzylpenicillin] | – | 12.5 (≈ 23.3 µM) | 12.5 (≈ 23.3 µM) | 12.5 (≈ 23.3 µM) | 0.78 (≈ 1.45 µM)
10 | CCOC(=O)Oc1ccc([C@@H](NC(=O)c2cnc3cccnc3c2O)C(=O)N[C@@H]2C(=O)N3[C@@H]2SC(C)(C)[C@@H]3C(=O)O)cc1 [Example 9, D-α-(4-hydroxy-1,5-naphthyridine-3-carboxamido)-p-ethoxycarbonyloxybenzylpenicillin] | 0.05 (≈ 0.082 µM) | 3.13 (≈ 5.13 µM) | 3.13 (≈ 5.13 µM) | 3.13 (≈ 5.13 µM) | 1.56 (≈ 2.56 µM)
11 | CCOC(=O)Oc1ccc([C@@H](NC(=O)c2cnc3cc(Cl)ccc3c2O)C(=O)N[C@@H]2C(=O)N3[C@@H]2SC(C)(C)[C@@H]3C(=O)O)cc1 [Example 10] | – | – | 0.78 (≈ 1.21 µM) | – | 0.39 (≈ 0.606 µM)
12 | CC1(C)S[C@@H]2[C@H](NC(=O)[C@H](NC(=O)c3cnc4cc(C(F)(F)F)ccc4c3O)c3ccc(O)cc3)C(=O)N2[C@H]1C(=O)O [Example 11] | – | 12.5 (≈ 20.7 µM) | 3.13 (≈ 5.18 µM) | 12.5 (≈ 20.7 µM) | –
13 | CCOC(=O)Oc1ccc([C@@H](NC(=O)c2cnc3ccccc3c2OC(=O)OCC)C(=O)N[C@@H]2C(=O)N3[C@@H]2SC(C)(C)[C@@H]3C(=O)O)cc1 [Example 12] | 0.2 (≈ 0.294 µM) | 3.13 (≈ 4.6 µM) | 3.13 (≈ 4.6 µM) | 6.25 (≈ 9.18 µM) | 0.78 (≈ 1.15 µM)
14 | CC1(C)S[C@@H]2[C@H](NC(=O)[C@H](NC(=O)c3cnc4ccccc4c3O)c3cccc(O)c3)C(=O)N2[C@H]1C(=O)O [Example 13] | 0.2 (≈ 0.373 µM) | 6.25 (≈ 11.6 µM) | 3.13 (≈ 5.83 µM) | 6.25 (≈ 11.6 µM) | 0.78 (≈ 1.45 µM)
15 | CC1(C)S[C@@H]2[C@H](NC(=O)[C@H](NC(=O)c3cnc4ccccc4c3O)c3ccc(O)c(Cl)c3)C(=O)N2[C@H]1C(=O)O [Example 14] | – | 6.25 (≈ 10.9 µM) | 6.25 (≈ 10.9 µM) | 6.25 (≈ 10.9 µM) | 0.78 (≈ 1.37 µM)
16 | CCOC(=O)Oc1ccc([C@@H](NC(=O)c2cnc3nc(C)ccc3c2O)C(=O)N[C@@H]2C(=O)N3[C@@H]2SC(C)(C)[C@@H]3C(=O)O)cc1 [Example 15] | 0.1 (≈ 0.16 µM) | 3.13 (≈ 5.02 µM) | 6.25 (≈ 10 µM) | 3.13 (≈ 5.02 µM) | 1.56 (≈ 2.5 µM)
17 | CC1(C)S[C@@H]2[C@H](NC(=O)C(NC(=O)c3cnc4cccnc4c3O)c3cccc(O)c3)C(=O)N2[C@H]1C(=O)O (stereo partly shown) [Example 16] | 0.05 (≈ 0.093 µM) | 3.13 (≈ 5.82 µM) | 3.13 (≈ 5.82 µM) | 3.13 (≈ 5.82 µM) | 1.56 (≈ 2.9 µM)
18 | CCOC(=O)Oc1ccc([C@@H](NC(=O)c2cnc3ccc(SC)nc3c2O)C(=O)N[C@@H]2C(=O)N3[C@@H]2SC(C)(C)[C@@H]3C(=O)O)cc1 [Example 17] | 0.1 (≈ 0.153 µM) | 1.56 (≈ 2.38 µM) | 1.56 (≈ 2.38 µM) | 1.56 (≈ 2.38 µM) | 0.78 (≈ 1.19 µM)
19 | Cc1ccc2ncc(C(=O)N[C@@H](C(=O)N[C@@H]3C(=O)N4[C@@H]3SC(C)(C)[C@@H]4C(=O)O)c3ccc(O)cc3)c(O)c2n1 [Example 18] | 0.05 (≈ 0.0906 µM) | 1.56 (≈ 2.83 µM) | 1.56 (≈ 2.83 µM) | 1.56 (≈ 2.83 µM) | 0.78 (≈ 1.41 µM)
20 | COc1ccc2ncc(C(=O)N[C@@H](C(=O)N[C@@H]3C(=O)N4[C@@H]3SC(C)(C)[C@@H]4C(=O)O)c3ccc(O)cc3)c(O)c2n1 [Example 19] | 0.05 (≈ 0.0881 µM) | 3.13 (≈ 5.51 µM) | 3.13 (≈ 5.51 µM) | 3.13 (≈ 5.51 µM) | 0.78 (≈ 1.37 µM)
21 | CCOC(=O)Oc1ccc([C@@H](NC(=O)c2cnc3cc([N+](=O)[O-])ccc3c2O)C(=O)N[C@@H]2C(=O)N3[C@@H]2SC(C)(C)[C@@H]3C(=O)O)cc1 [Example 20] | – | 12.5 (≈ 19.1 µM) | 6.5 (≈ 9.94 µM) | 12.5 (≈ 19.1 µM) | 0.78 (≈ 1.19 µM)
22 | CC1(C)S[C@@H]2[C@H](NC(=O)[C@H](NC(=O)c3cnc4ccc(O)nc4c3O)c3ccc(O)cc3)C(=O)N2[C@H]1C(=O)O [Example 22] | 0.05 (≈ 0.0903 µM) | 1.56 (≈ 2.82 µM) | 1.56 (≈ 2.82 µM) | 3.13 (≈ 5.65 µM) | 0.78 (≈ 1.41 µM)
23 | CCOC(=O)Oc1ccc([C@@H](NC(=O)c2cnc3ccc(NC(C)=O)nc3c2O)C(=O)N[C@@H]2C(=O)N3[C@@H]2SC(C)(C)[C@@H]3C(=O)O)cc1 [Example 23] | 0.2 (≈ 0.3 µM) | 3.13 (≈ 4.69 µM) | 3.13 (≈ 4.69 µM) | 3.13 (≈ 4.69 µM) | 1.56 (≈ 2.34 µM)
24 | CC1(C)S[C@@H]2[C@H](NC(=O)[C@H](NC(=O)c3cnc4ccc(N)nc4c3O)c3ccc(O)cc3)C(=O)N2[C@H]1C(=O)O [Example 24] | 0.05 (≈ 0.0905 µM) | 1.56 (≈ 2.82 µM) | 3.13 (≈ 5.66 µM) | 3.13 (≈ 5.66 µM) | 1.56 (≈ 2.82 µM)
25 | CCOC(=O)Oc1ccc([C@@H](NC(=O)c2cnc3ccc(N(C)C)nc3c2O)C(=O)N[C@@H]2C(=O)N3[C@@H]2SC(C)(C)[C@@H]3C(=O)O)cc1Cl [Example 25] | 0.05 (≈ 0.0728 µM) | 3.13 (≈ 4.56 µM) | 3.13 (≈ 4.56 µM) | 3.13 (≈ 4.56 µM) | 0.78 (≈ 1.14 µM)
26 | CCOC(=O)Oc1ccc([C@@H](NC(=O)c2cnc3cc4c(cc3c2S)OCO4)C(=O)N[C@@H]2C(=O)N3[C@@H]2SC(C)(C)[C@@H]3C(=O)O)cc1 [Example 38] | 0.2 (≈ 0.299 µM) | – | 3.13 (≈ 4.68 µM) | 3.13 (≈ 4.68 µM) | 0.39 (≈ 0.583 µM)
